Laboratory results as given in patent US20120065365A1, “Stable Radiopharmaceutical Compositions and Methods for Their Preparation” (BRACCO IMAGING S.P.A., priority 2003, published 2012).
Where two headings read alike, the source gives them in different places. Blank lines part the entries; values can stand above or below the compound they belong to.

Tests used:
[1] = assay type: physicochemical; conditions: ^177Lu-A (2.7-3.7 mCi) prepared in presence of 1 mg/mL stabilizer
Procedure: The injection volume was 10 μL.
Each individual stabilizer was prepared at a concentration of 1 mg/mL in sodium acetate (NaOAc) buffer (0.2 M, pH 4.8). […] The reaction mixture was heated to 100° C. for 5 minutes, and then cooled for 5 minutes in an ambient-temperature water hath. To each sample, 10 μL of 2% Na2EDTA.2H2in water was added, and then each was divided into two 100-μL aliquots. One aliquot was analyzed by HPLC (Method 5) and then stored at room temperature in a sealed lead container for 24 hours. The other aliquot was stored frozen (−10° C.) for 24 hours. Each sample was analyzed at t=24 h.

[2] = Radiostability (RCP, Met═O by HPLC) of preformed ^177Lu-A with individual amino acids added (Example 1); assay type: physicochemical; conditions: amino acid 6.6 mg/mL, room temperature
Procedure: (§1) The injection volume was 20 μL.
Solutions of the individual amino acids L-Methionine, L-Selenomethionine, L-cysteine HCl.H2O, L-Tryptophan, L-Histidine, and Glycine were prepared at a concentration of 10 mg/mL in 10 mM Dulbecco's phosphate-buffered saline, pH 7.0 [PBS].
The final radioactive concentration of each sample was ˜20 mCi/mL.

[3] = assay type: physicochemical; conditions: ^177Lu-A (3.6 mCi) prepared in presence of 2.5 mg/mL stabilizer
Procedure: To lead-shielded 4-mL vials was added 200 μL of the individual NaOAc-stabilizer solutions, 3.58 mCi ^177LuCl3 (avg) and 5.08 μg COMPOUND A (dissolved in water). The ratio of COMPOUND A to Lutetium was 3:1 for all samples. The reaction mixtures were heated to 100° C. for 5 minutes, then cooled, treated with Na2EDTA.2H2O, subdivided and stored as described in Example 9. The radiochemical purity (RCP) percentage data obtained are listed Table 12.

[4] = assay type: physicochemical
Procedure: as §1
Each stabilizer was prepared at a concentration of 5 mg/mL in sodium acetate (NaOAc) buffer (0.2 M, pH 4.8). To lead-shielded 4-mL vials were added 200 μL of the individual stabilizer solutions, 3.55 mCi ^177LuCl3 (avg) and 5.44 μg COMPOUND A (dissolved in water). A second set of replicates of each sample was prepared, using the individual stabilizers. To these was added 4.37 mCi ^177LuCl3 (avg) and 6.7 μg (avg) COMPOUND A (dissolved in water). The ratio of COMPOUND A to lutetium was 3:1 for all samples. The reaction mixture was heated to 100° C. for 5 minutes then cooled for 5 minutes in an ambient-temperature water bath. To each sample, 10 μL of 2% Na2EDTA.2H2O in water was added, then each was analyzed by HPLC (Method 1 for the first set of replicates; Method 2 for the second set of replicates). The second set of replicates were stored and analyzed again at t=24 h.

[5] = assay type: physicochemical; remark: listed apart in the source
Procedure: The reaction vial was crimp-sealed and heated at 100° C. for 5 min. […] The sample was stored in an autosampler in which the temperature is ˜6° C. […] than room temperature, and analyzed by RP-HPLC for up to 24 hours.
L-Selenomethionine: ^177Lu-B was prepared, diluted and analyzed as described above, but 5 mg of L-Se-Met was used in place of PDTC, the heating time was 10 minutes, and the quantity of radioactivity used was 52 mCi.
L-cysteine ethyl ester, HCl: ^177Lu-B was prepared, diluted and analyzed as described above, but 5 mg of L-CEE, hydrochloride salt was used in place of PDTC, the heating time was 5 minutes and the quantity of radioactivity used was 50 mCi.
L-cysteine HCl.H2O: ^177Lu-B was prepared, diluted and analyzed as described above, but 5 mg of L-Cys HCl.H2O was used in place of PDTC, the heating time was 8 minutes and the quantity of radioactivity used was 53 mCi.

[6] = Labeling efficiency and stability of ^111In-B with selenomethionine 2.5 mg/mL (Example 21); assay type: physicochemical
Procedure: A solution of L-selenomethionine (20 mg/mL) was prepared by dissolving it in NaOAc buffer (0.2 M, pH 4.0). To a lead-shielded 2-mL vial was added 111 μL of NaOAc buffer (0.2 M, pH 4.0), 25 μL selenomethionine solution (0.5 mg of Se-Met), 4 μL of COMPOUND B (20 μg in 0.01 N HCl) and 1.0 mCi ^111InCl3 in 60 μL of 0.05 N HCl. A control reaction was run containing all reagents above, but substituting NaOAc buffer for the Se-Met solution. The reaction mixtures were heated at 100° C. for 15 minutes, and then cooled for 1 minute in an ambient-temperature water bath. To each sample, 200 μL of stabilizing solution (0.2% HSA, 5% ascorbic acid, 0.9% benzyl alcohol, 20 mM Se-Met in 50 mM citrate buffer, pH 5.3) and 2 μL of 1% Na2EDTA.2H2O in water were added, and then each was analyzed stored at room temperature for up to 6 hours and analyzed by HPLC as described below. HPLC conditions: Vydac C18 column, 4.6×250 mm, 5 μM, 1.5 mL/min flow rate at 30° C. Solvent A: 0.1% TFA in water; Solvent B: 0.085% TFA in acetonitrile. Gradient: 80% A/20% B isocratic for 20 min, ramp up to 40% A/60% B in 5 min, hold for 5 mm, return to 80% A/20% B in 5 min.

[7] = Stability in Radiolysis Protecting Solution containing methionine (FIG. 4 and similar study); assay type: physicochemical; conditions: 104 mCi, diluted 1:1 with radiolysis protecting solution (2 mg/mL DL-methionine) added after complex formation, room temperature
Procedure: Formulations stabilized by such cocktails maintained excellent radiochemical purity (RCP) values (>95% RCP) for as long as 5 days at room temperature. This stabilizing cocktail is added immediately after formation of the radioactive complex, so would be the second vial of a two-vial kit.

[8] = assay type: physicochemical; remark: listed apart in the source
Procedure: The reaction vial was crimp-sealed and heated at 100° C. for 10 min. […] The sample was stored in an autosampler in which the temperature is ˜6° C. […] than room temperature, and analyzed by RP-HPLC for up to 120 hours.

[9] = assay type: physicochemical; conditions: Radiolysis Protecting Solution containing L-selenomethionine, room temperature
Procedure: ^177Lu-A and ^177Lu-B were prepared at a 50 mCi level as described in EXAMPLE 4. Immediately after cooling the reaction mixtures to room temperature, 1 mL of a Radiolysis Protecting solution was added, containing 10 mg/mL gentisic acid; 50 mg/mL ascorbic acid sodium salt; 2 mg/mL HSA; 3.92 mg/mL L-selenomethionine, 0.9% (v:v) benzyl alcohol and 1 mg/mL of Na2EDTA.2H2O in 0.05 M, pH 5.3 citrate buffer. The reaction vials were stored in the autosampler chamber and the stability was analysed by RP-HPLC over time using HPLC Methods 3 [^177Lu-A] or 4 [^177Lu-B].

[10] = assay type: physicochemical; conditions: 50 mCi/2 mL in Radiolysis Protecting Solution containing L-methionine, room temperature
Procedure: as §1
A Radiolysis Protecting Solution was prepared to contain 10 mg/mL gentisic acid; 50 mg/mL ascorbic acid sodium salt; 2 mg/mL HSA; 2.98 mg/mL L-methionine, 0.9% (v:v) benzyl alcohol and 1 mg/mL of Na2EDTA.2H2O in 0.05 M, pH 5.3 citrate buffer. […] The mixture was incubated at 100° C. for 5 min, and then cooled to room temperature with a water bath. A 1-mL aliquot of the Radiolysis Protecting Solution was immediately added. The reaction vial was stored in an autosampler chamber and the stability was analyzed by Reversed Phase HPLC over time, using HPLC Methods 3 and 4. The results obtained for ^177Lu-B are shown in the chromatograms in FIG. 9.

RCP % t = 24 h (frozen) ([1]; 24 h frozen (−10° C.)): 99.2%
RCP % t = 24 h (room temp) ([1]; 24 h room temp): 100%
RCP % t = 0 h ([1]; t = 0 h): 100%
0-1 h RCP (%) ([2]; ^177Lu-A ~20 mCi/mL (3.5 mCi total), 0-1 h): 100%
24-h RCP (%) ([2]; ^177Lu-A ~20 mCi/mL, 24 h): 99.1%
48-h RCP (%) ([2]; ^177Lu-A ~20 mCi/mL, 48 h): 99.9%
RCP % t = 24 h (frozen) ([3]; 24 h frozen): 94.7%
RCP % t = 24 h (room temp) ([3]; 24 h room temp): 95.6%
RCP % t = 0 h ([3]; t = 0 h): 95.7%
Replicate 1 RCP % t = 0 h ([4]; ^177Lu-A (3.55 mCi avg) prepared in presence of 5 mg/mL stabilizer, HPLC Method 1, t = 0 h): 57.5%
Replicate 2 RCP % t = 0 h ([4]; ^177Lu-A (4.37 mCi avg) prepared in presence of 5 mg/mL stabilizer, HPLC Method 2, t = 0 h): 60.6%
Replicate 2 RCP % t = 24 h ([4]; ^177Lu-A (4.37 mCi avg) prepared in presence of 5 mg/mL stabilizer, HPLC Method 2, t = 24 h): 57.1%
(% RCP) 3-h ([5]; ^177Lu-B (44-53 mCi) formulated with 5 mg stabilizing compound, 3 h): 94.6%
(% RCP) 6-h ([5]; ^177Lu-B (44-53 mCi) formulated with 5 mg stabilizing compound, 6 h): 94.4%
(% RCP) 9-h ([5]; ^177Lu-B (44-53 mCi) formulated with 5 mg stabilizing compound, 9 h): 93.3%
(% RCP) 12-h ([5]; ^177Lu-B (44-53 mCi) formulated with 5 mg stabilizing compound, 12 h): 92.6%
(% RCP) 24-h ([5]; ^177Lu-B (44-53 mCi) formulated with 5 mg stabilizing compound, 24 h): 90.6%
(% RCP) 0-h ([5]; ^177Lu-B (44-53 mCi) formulated with 5 mg stabilizing compound, diluted to ~2 mL, ~6° C. above room temperature, 0 h): 95.0%
RCP Drop over 24 hr ([5]; ^177Lu-B formulated with 5 mg stabilizing compound, 0 to 24 h): 4.4%
RCP, % t = 0 ([6]; ^111In-B (1.0 mCi) prepared in presence of selenomethionine 2.5 mg/mL, stabilizing solution added after, t = 0): 98.3%
RCP, % t = 6 h ([6]; ^111In-B prepared in presence of selenomethionine 2.5 mg/mL, room temperature, 6 h): 96.6%
Compound: C[Se]CC[C@H](N)C(=O)O [L-Selenomethionine]

Compound: ^177Lu-B: the ^177Lu complex of DOTA-Gly-Abz4-Gln-Trp-Ala-Val-Gly-His-Leu-Met-NH2
RCP for 5 days [7]: > 99%
RCP (%) ([8]; 110.5 mCi, prepared with L-selenomethionine 2.94 mg/mL, then 4 mL saline with sodium ascorbate 50 mg/mL and benzyl alcohol, 0 hours post-reconstitution): 99.5%
RCP (%) ([8]; L-selenomethionine 2.94 mg/mL plus ascorbate/benzyl alcohol saline, 120 (5 days) hours post-reconstitution): 99.8%
RCP (%) ([8]; L-selenomethionine 2.94 mg/mL plus ascorbate/benzyl alcohol saline, 2 hours post-reconstitution): 99.6%
RCP (%) ([8]; L-selenomethionine 2.94 mg/mL plus ascorbate/benzyl alcohol saline, 3 hours post-reconstitution): 99.5%
RCP (%) ([8]; L-selenomethionine 2.94 mg/mL plus ascorbate/benzyl alcohol saline, 6 hours post-reconstitution): 99.0%
RCP (%) ([8]; L-selenomethionine 2.94 mg/mL plus ascorbate/benzyl alcohol saline, 9 hours post-reconstitution): 99.4%
RCP (%) ([8]; L-selenomethionine 2.94 mg/mL plus ascorbate/benzyl alcohol saline, 12 hours post-reconstitution): 99.2%
RCP (%) ([8]; L-selenomethionine 2.94 mg/mL plus ascorbate/benzyl alcohol saline, 24 hours post-reconstitution): 99.4%
% RCP 0-d ([9]; 50 mCi level, 0 d): 95.8%
% RCP 1-d ([9]; 1 d): 95.7%
% RCP 2-d ([9]; 2 d): 96.2%
% RCP 3-d ([9]; 3 d): 96.7%
% RCP 5-d ([9]; 5 d): 98.4%
% RCP 0-d ([10]; 0 d): 99.8%
% RCP 1-d ([10]; 1 d): 99.3%
% RCP 2-d ([10]; 2 d): 99.6%
% RCP 5-d ([10]; 5 d): 99.8%
